29 molecules from US7253158B2, “Sulfonamides” (Hoffmann-La Roche Inc., priority 2004, dated 2007) can be followed below.

Molecules are shown by their SMILES.

One assay deals with T1, γ-secretase (Homo sapiens, UniProt P49768).
T1 construct: uses a HEK293 membrane fraction as a source of γ-secretase; endogenous in cells; host or cells: HEK293 (microsomal membrane fraction, solubilised in 0.25% CHAPSO)
The assay can be described thus: in vitro γ-secretase assay (HEK293 membrane fraction, recombinant APP substrate, Abeta ELISA). In kind it is biochemical. Conditions: γ-secretase inhibition. The source says: Description of γ-Secretase Assay
The activity of test compounds can be evaluated in assays which measure the proteolytic cleavage of suitable substrates by γ-secretase activity. These can be cellular assays where e.g., a substrate of the γ-secretase is fused in its cytoplasmic domain to a transcription factor. Cells are transfected with this fusion gene and a reporter gene, e.g., firefly luciferase, which expression is enhanced by the transcription factor. Cleavage of the fused substrate by γ-secretase will lead to expression of the reporter gene which can be monitored in appropriate assays. The γ-secretase activity can also be determined in cell-free in vitro asays where e.g., a cell lysate containing the γ-secretase complex is incubated with a suitable APP-derived substrate which is cleaved to the Abeta peptides. The amount of produced peptides can be determined with specific ELISA assays. Cell lines of neuronal origin secrete Abeta peptides which can be measured with the specific ELISA assay. Treatment with compounds which inhibit γ-secretase leads to a reduction of secreted Abeta thus providing a measure of inhibition.
The in vitro assay of γ-secretase activity uses a HEK293 membrane fraction as a source of γ-secretase and a recombinant APP substrate. Latter consist of the C-terminal 100 amino acids of human APP fused to a 6× Histidin tail for purification which is expressed in E. coli in a regulatable expression vector, e.g. pEt15. This recombinant protein corresponds to the truncated APP fragment which results after […] of the extracellular domain and which constitutes the γ-secretase substrate. […] Hek293 cells are mechanically disrupted and the microsomal fraction is isolated by differential centrifugation.
For `O=C(O)CCc1ccc(CN([C@@H]2CCCCNC2=O)S(=O)(=O)c2ccc(Cl)cc2)cc1` [Example 201, 3-(4-{[(4-Chloro-benzenesulfonyl)-((R)-2-oxo-azepan-3-yl)-amino]-methyl}-phenyl)-propionic acid], the IC50 stood at 20 nM. As to `COC(=O)c1ccc(CN(C2CCCCNC2=O)S(=O)(=O)c2ccc(Cl)cc2)c(F)c1` (racemic) [Example 203, rac-4-{[(4-Chloro-benzenesulfonyl)-(2-oxo-azepan-3-yl)-amino]-methyl}-3-fluoro-benzoic acid methyl ester], the IC50 was 190 nM. As to `CC(C)(Cc1ccc(CN([C@@H]2CCCCNC2=O)S(=O)(=O)c2ccc(Cl)cc2)cc1)C(=O)O` [Example 219, 3-(4-{[(4-Chloro-benzenesulfonyl)-((R)-2-oxo-azepan-3-yl)-amino]-methyl}-phenyl)-2,2-dimethyl-propionic acid], the IC50 came out at 230 nM. `O=C(O)c1ccc(CN(C2CC(C(F)(F)F)CCNC2=O)S(=O)(=O)c2ccc(Cl)cc2)c(F)c1` (centres unmarked) [Example 199, 4-{[(4-Chloro-benzenesulfonyl)-(2-oxo-5-trifluoromethyl-azepan-3-yl)-amino]-methyl}-3-fluoro-benzoic acid]: the IC50 came out at 20 nM.

With `O=C1NCCCC[C@H]1N(Cc1ccc(-c2ccno2)cc1)S(=O)(=O)c1ccc(Cl)cc1` [Example 208, 4-Chloro-N-(4-isoxazol-5-yl-benzyl)-N-((R)-2-oxo-azepan-3-yl)-benzenesulfonamide], the IC50 came to 220 nM. On the same count and under the same terms, then `CC(C)(CC(=O)O)c1ccc(CN([C@@H]2CCCCNC2=O)S(=O)(=O)c2ccc(Cl)cc2)cc1` [Example 218, 3-(4-{[(4-Chloro-benzenesulfonyl)-((R)-2-oxo-azepan-3-yl)-amino]-methyl}-phenyl)-3-methyl-butyric acid], with 210 nM.

The assay is the same for the next values; noted with them: γ-secretase inhibition, table head prints none.
`COc1ccc(CN(C2CCCCNC2=O)S(=O)(=O)c2ccc(Br)cc2)cc1F` (racemic) [Example 28, rac-4-Bromo-N-(3-fluoro-4-methoxy-benzyl)-N-(2-oxo-azepan-3-yl)-benzenesulfonamide]: the IC50 was 150 nM. Turning to `COc1ccc(CN(C2CC(C(C)C)CCNC2=O)S(=O)(=O)c2ccc(Cl)cc2)c(F)c1` (centres unmarked) [Example 116, 4-Chloro-N-(2-fluoro-4-methoxy-benzyl)-N-(5-isopropyl-2-oxo-azepan-3-yl)-benzenesulfonamide], the IC50 is 140 nM. On the same count and under the same terms, then `COC(=O)c1ccc(CN(C2CC(C)(C)CCNC2=O)S(=O)(=O)c2ccc(Cl)cc2)cc1` (racemic) [Example 138, Rac-4-{[(4-Chloro-benzenesulfonyl)-(5,5-dimethyl-2-oxo-azepan-3-yl)-amino]-methyl}-benzoic acid methyl ester], with 10 nM; and `CC1(C)CCNC(=O)C(N(Cc2ccc(C(=O)NCCN3CCOCC3)cc2)S(=O)(=O)c2ccc(Cl)cc2)C1` (racemic) [Example 149, rac-4-{[(4-Chloro-benzenesulfonyl)-(5,5-dimethyl-2-oxo-azepan-3-yl)-amino]-methyl}-N-(2-morpholin-4-yl-ethyl)-benzamide], with 150 nM; and `CC1(C)CCNC(=O)[C@H](N(Cc2ccc(C(=O)O)cc2F)S(=O)(=O)c2ccc(Cl)cc2)C1` [Example 188, 4-{[(4-Chloro-benzenesulfonyl)-((R)-5,5-dimethyl-2-oxo-azepan-3-yl)-amino]-methyl}-3-fluoro-benzoic acid], with 30 nM.

As to `CN(C)NC(=O)c1ccc(CN(C2CC(C(F)(F)F)CCNC2=O)S(=O)(=O)c2ccc(Cl)cc2)cc1` (centres unmarked) [Example 196, 4-Chloro-N-[4-(N′,N′-dimethyl-hydrazinocarbonyl)-benzyl]-N-(2-oxo-5-trifluoromethyl-azepan-3-yl)-benzenesulfonamide], the IC50 was 190 nM. Consider `COC(=O)CNC(=O)c1ccc(CN(C2CC(C)(C)CCNC2=O)S(=O)(=O)c2ccc(Cl)cc2)cc1` (racemic) [Example 148, rac-(4-{[(4-Chloro-benzenesulfonyl)-(5,5-dimethyl-2-oxo-azepan-3-yl)-amino]-methyl}-benzoylamino)-acetic acid methyl ester], for which the IC50 is 20 nM. The same measure, in the same setting: the figure for `O=C(NC1CC1)c1ccc(CN([C@@H]2CCCCNC2=O)S(=O)(=O)c2ccc(C(F)(F)F)cc2)cc1` [Example 106, N-Cyclopropyl-4-{[((R)-2-oxo-azepan-3-yl)-(4-trifluoromethyl-benzenesulfonyl)-amino]-methyl}-benzamide] is 260 nM; for `Cc1nnc(-c2ccc(CN(C3CC(C(C)C)CCNC3=O)S(=O)(=O)c3ccc(Cl)cc3)cc2)o1` (centres unmarked) [Example 180, 4-Chloro-N-(5-isopropyl-2-oxo-azepan-3-yl)-N-[4-(5-methyl-[1,3,4]oxadiazol-2-yl)-benzyl]-benzenesulfonamide] it is 140 nM. As for `COC(=O)c1ccc(CN(C2CCCCNC2=O)S(=O)(=O)c2ccc(Cl)cc2)cc1` (racemic) [Example 57, rac-4-{[(4-Chloro-benzenesulfonyl)-(2-oxo-azepan-3-yl)-amino]-methyl}-benzoic acid methyl ester], the IC50 was found to be 130 nM. For `O=C(O)CCc1ccc(CN(C2CC(C(F)(F)F)CCNC2=O)S(=O)(=O)c2ccc(Cl)cc2)cc1` (centres unmarked) [Example 194, 3-(4-{[(4-Chloro-benzenesulfonyl)-(2-oxo-5-trifluoromethyl-azepan-3-yl)-amino]-methyl}-phenyl)-propionic acid], the IC50 was 130 nM. As for `COc1ccc(CN(C2CC(C(C)C)CCNC2=O)S(=O)(=O)c2ccc(Cl)cc2)cc1` (centres unmarked) [Example 111, 4-Chloro-N-(5-isopropyl-2-oxo-azepan-3-yl)-N-(4-methoxy-benzyl)-benzenesulfonamide], the IC50 was 8 nM. In the case of `O=C(NC1CC1)c1ccc(CN(C2CCCCNC2=O)S(=O)(=O)c2ccc(Cl)cc2)cc1` (racemic) [Example 75, rac-4-{[(4-Chloro-benzenesulfonyl)-(2-oxo-azepan-3-yl)-amino]-methyl}-N-cyclopropyl-benzamide], the IC50 was determined as 190 nM. In the case of `CC(C)C1CCNC(=O)C(N(Cc2ccc(C(N)=O)cc2)S(=O)(=O)c2ccc(Cl)cc2)C1` (centres unmarked) [Example 4, 4-{[(4-Chloro-benzenesulfonyl)-(5-isopropyl-2-oxo-azepan-3-yl)-amino]-methyl}-benzamide], the IC50 was found to be 260 nM. In the case of `CC1(C)CCNC(=O)C(N(Cc2ccc(C(=O)NC3CC3)cc2)S(=O)(=O)c2ccc(Cl)cc2)C1` (centres unmarked) [Example 109, 4-{[(4-Chloro-benzenesulfonyl)-(5,5-dimethyl-2-oxo-azepan-3-yl)-amino]-methyl}-N-cyclopropyl-benzamide], the IC50 amounted to 280 nM. `O=C(O)c1ccc(CN(C2CC(C(F)(F)F)CCNC2=O)S(=O)(=O)c2ccc(Cl)cc2)cc1` (centres unmarked) [Example 195, 4-{[(4-Chloro-benzenesulfonyl)-(2-oxo-5-trifluoromethyl-azepan-3-yl)-amino]-methyl}-benzoic acid]: the IC50 stood at 30 nM.

Take `CC(C)C1CCNC(=O)C(N(Cc2ccc(C(=O)NC3CC3)cc2)S(=O)(=O)c2ccc(Cl)cc2)C1` (racemic) [Example 43, rac-4-{[(4-Chloro-benzenesulfonyl)-(5-isopropyl-2-oxo-azepan-3-yl)-amino]-methyl}-N-cyclopropyl-benzamide]: the IC50 came to 30 nM. With `CC1(C)CCNC(=O)C(N(Cc2ccc(C(=O)N[C@@H]3C[C@@H]3F)cc2)S(=O)(=O)c2ccc(Cl)cc2)C1` (mixture of isomers) [Example 142, rac-4-{[(4-Chloro-benzenesulfonyl)-(5,5-dimethyl-2-oxo-azepan-3-yl)-amino]-methyl}-N-((1R,2S)-2-fluoro-cyclopropyl)-benzamide], the IC50 is 20 nM. Regarding `COC(=O)c1ccc(C(C)N([C@@H]2CCCCNC2=O)S(=O)(=O)c2ccc(Cl)cc2)cc1` (stereo partly drawn) [Example 41, 4-{1-[(4-Chloro-benzenesulfonyl)-((R)-2-oxo-azepan-3-yl)-amino]-ethyl}-benzoic acid methyl ester], the IC50 came out at 200 nM. With `CCOC(=O)c1ccc(CN([C@@H]2CCCCNC2=O)S(=O)(=O)c2ccc(Cl)cc2)cc1` [Example 35, 4-{[(4-Chloro-benzenesulfonyl)-((R)-2-oxo-azepan-3-yl)-amino]-methyl}-benzoic acid ethyl ester], the IC50 was determined as 90 nM. On to `COc1ccc(CN([C@@H]2CCCCNC2=O)S(=O)(=O)c2ccc(C(F)(F)F)cc2)c(F)c1F` [Example 166, N-(2,3-Difluoro-4-methoxy-benzyl)-N-((R)-2-oxo-azepan-3-yl)-4-trifluoromethyl-benzenesulfonamide], for which the IC50 was 230 nM. For the molecule `CC1(C)CCNC(=O)C(N(Cc2ccc(C(=O)NCc3ccccc3)cc2)S(=O)(=O)c2ccc(Cl)cc2)C1` (racemic) [Example 147, rac-N-Benzyl-4-{[(4-chloro-benzenesulfonyl)-(5,5-dimethyl-2-oxo-azepan-3-yl)-amino]-methyl}-benzamide], the IC50 turned out to be 20 nM.

With `COC(=O)CCc1ccc(CN([C@@H]2CC(C)(C)CCNC2=O)S(=O)(=O)c2ccc(Cl)cc2)cc1` [Example 186, 3-(4-{[(4-Chloro-benzenesulfonyl)-((R)-5,5-dimethyl-2-oxo-azepan-3-yl)-amino]-methyl}-phenyl)-propionic acid methyl ester], the IC50 was determined as 130 nM.
